Source: US20020192776A1, “Heliothis glutamate receptor” (Aventis Cropscience SA, priority 2000, published 2002)

System: lepidopteran glutamate-gated chloride channel
Experiment: two-electrode voltage clamp recordings of Xenopus oocytes injected with HEGE2 mRNA
Format: cell-based, Heliothis virescens
Conditions: held at -80 mV
Experimental: Messenger RNA was produced from the cDNA template of HEGE2 by in vitro transcription with the Ambion mMESSAGE mMACHINE IN VITRO TRANSCRIPTION KIT (Ambion, Inc.). The mRNA was injected into oocytes by the following procedure.
Frogs were anesthetized in a 2 gram/liter solution of 3-amino benzoic acid ethyl ester for thirty minutes, after which oocytes were surgically removed from the abdominal cavity. Follicles were digested by collagenase treatment under sterile conditions by standard methods. Oocytes were injected with 50 nl of 1 μg/μl mRNA by glass electrodes.
After a 24 hr incubation, two-electrode voltage clamp recordings were made. Recordings were made using a Dagan, TEV200 voltage clamp interfaced with a MacLab4 data acquisition system running the MacLab Chart data acquisition/analysis software. Oocytes were positioned under a dissection scope under constant perfusion with frog saline (96 mM of NaCl, 2 mM of KCl, 1 mM of MgCl2, 1.8 mM of CaCl2 and 10 mM of HEPES, pH 7.5) using a Razel syringe perfusion pump. Model A99-FY at 93.9 cc/hr. Glass electrodes (A-M Systems. Inc. 1.5 mm×0.86 mm) were filled with 3 M KCl and resistance (a function of the diameter of the channel opening) was measured to be between 0.7 and 1.5 mega ohms. Both electrodes were inserted into the oocyte at opposite sides, the resting potential was recorded and the voltage clamp turned on. […]

Compound: Ivermectin phosphate
- activation of current in oocytes (One micromolar Ivermectin phosphate, Xenopus oocytes expressing HEGE2): slowly and irreversibly activated current

Compound: N[C@@H](CCC(=O)O)C(=O)O [glutamate]
- activation of membrane (chloride) current (100 uM glutamate, Xenopus oocytes injected with 50 ng of HEGE2 mRNA, FIG. 1): activate a membrane current
